The text below walks through data of patent US20160304547A1, “MACROLIDE COMPOUND” (PULIKE BIOLOGICAL ENGINEERING, INC, priority 2013, published 2016).

Assay [1] deals with Streptococcus pneumoniae CMCC 31203. Description: In vivo antibacterial test, survival of infected BALB/c mice. Conditions: BALB/c mice infected i.p. with Streptococcus pneumoniae, 5 mg per kg s.c. via neck for 3 consecutive days, deaths recorded until the seventh day.
The test system of assay [2] is Actinobacillus pleuropneumoniae CVCC262. Description: MIC by mini broth dilution technique (in vitro susceptibility). The conditions noted are these: Actinobacillus pleuropneumoniae CVCC262; broth dilution. It counts as cell-based. The protocol: in vitro tests of susceptibility of the compounds according to the present disclosure against bacterial strains commonly used in laboratories. In accordance with the Performance Standards for Antimicrobial Disk Susceptibility Tests: Approved Standard published by the US National Committee for Clinical Laboratory Standards, the antibactetial activities of compounds prepared according to examples 5 to 187 were tested. The MICs (minimum inhibitory concentration) of the medicaments prepared according to the examples on the following bacterial strains were measured through mini broth dilution technique. Staphylococcus aureus CVCC26003, Streptococcus equines CVCC556. Actinobacillus pleuropneumoniae CVCC262, Haemophilus parasuis, and Pasteurella multocida CVCC399, which were purchased from the Control Institute of Veterinary Bioproducts and Pharmaceuticals, China. Liquid culture medium: […] Solid culture medium: […] The strains were taken out of a regrigerator at −20° C. to be revived, and were spreaded by streaking on the solid culture medium with an inoculating loop. The inoculated culture medium was cultured at 35° C. in a constant temperature incubator for 20 h. Monoclonal antibodies were selected from a well-grown culture plate and streaked on the solid culture medium. The inoculated culture medium was cultured at 35° C. in the constant temperature incubator for 20 h. […] A 96-well plate was used, and 100 μl of DMSO was added into each of wells 2 to 11, and 200 μl of ready-prepared medicament solution was added into the 1st well, 100 μl of the medicament solution was extracted from the 1st well and added into the 2nd well. Double dilution was performed until the 11th well, thereby forming 11 gradients. In this case, compound of parent plate was prepared. 3 μl of double diluted medicament solution was extracted with a 12-channel pipettor and added into wells 1-11 of a new disposable 96-well culture plate. The 12th well thereof is a controll well. For each medicament, there are two adjacent rows which are parallel. The transferred compound plate was reserved for later use. […] The dilution ratio was recorded, and the bacterial liquid for the tests was diluted according to the recorded dilution ratio. Subsequently, the bacterial suspension and the liquid culture medium were diluted in the proportion of 1:200. The diluted solution was reserved for later use.
On the technique in general: Dilution methods test growth across graded concentrations, often in twofold steps.

For the molecule `CCCNC[C@]1(O)[C@H](C)O[C@@H](O[C@H]2[C@H](C)[C@@H](O[C@@H]3O[C@H](C)C[C@H](N(C)C)[C@H]3O)[C@](C)(O)C[C@@H](C)NC[C@H](C)[C@@H](O)[C@](C)(O)[C@@H](CC)OC(=O)[C@@H]2C)C[C@@]1(C)OC` [syzx-1], in assay [1], the Animal survival rate is 80% (8/10). For the molecule `CC[C@@H]1OC(=O)[C@H](C)[C@H](OC2C[C@@](C)(OC)[C@](O)(CNCCOC)[C@H](C)O2)[C@@H](C)[C@@H](O[C@@H]2O[C@H](C)C[C@H](N(C)C)[C@H]2O)[C@](C)(O)C[C@@H](C)NC[C@@H](C)[C@H](O)[C@]1(C)O` (stereo partly shown) [syzx-58], the responders at 5 mg/kg in assay [1] (CMCC31203, sc, 168 h, read-out: Animal survival rate) turned out to be 80%. Further, the “MIC values Actinobacillus pleuropneumoniae CVCC262” value in assay [2] is 16 ug/mi. Consider `CCCNC[C@]1(O)[C@H](C)O[C@@H](O[C@H]2[C@H](C)[C@@H](O[C@@H]3O[C@H](C)C[C@H](N(C)C)[C@H]3O)[C@](C)(O)C[C@@H](C)N(CCC)C[C@H](C)[C@@H](O)[C@](C)(O)[C@@H](CC)OC(=O)[C@@H]2C)C[C@@]1(C)OC` [syzx-101, (2R,3S,4R,5S,8R,10R,11R,12S,13S,14R)-13-[(2,6-dideoxy-3-C-methyl-3-O-methyl-4-C-[(n-propyl-amino)methyl]-α-L-ribopyranosyl)oxy]-2-ethyl-3,4,10-trihydroxy-3,5,8,10,12,14-hexamethyl-7-propyl-11-[[3,4,6-trideoxy-3-(dimethylamino)-β-D-xylo-hexopyranosy]oxy]-1-oxa-7-azacyclopentadecan-15-one], for which, in assay [1], the Animal survival rate is given as 90% (9/10).
